Laboratory results published in patent US8119588B2, “Hard surface cleaner compositions of sulfonated estolides and other derivatives of fatty acids and uses thereof” (Stepan Company, priority 2009, dated 2012).

Assays:
[1] = Surface activity by Kruss K12 tensiometer; format: physicochemical; conditions: 25° C. in deionized water
Procedure: The surface activity was measured using a Kruss K12 tensiometer at 25° C. in deionized water. The critical micelle concentration (CMC) and the surface tension at CMC are important properties for a surfactant. CMC indicates the minimum concentration of a surfactant that forms aggregates. […] The surface tension indicates how efficient a surfactant can reduce the surface energy of water. Lower surface tension is favorable for wetting and cleansing.

[2] = Coupling ability (hydrotrope requirement) with nonionic surfactants of different HLB; format: physicochemical
Procedure: Sodium xylene sulfonate (SXS) is often used as a hydrotrope to clarify cloudy formulations. […] In Table 2, the measurement of the amount of hydrotrope or surfactant needed to clear the solution was determined.
The compositions described in Table 2 are made in accordance with the following steps: • Add the water and trisodium citrate and mix until the solution is clear. Add BIO-SOFT® N25-9 slowly until the solution is homogeneous. Add BIO-SOFT® N25-3 and mix until the solution is homogeneous. If the final solution is cloudy, then continue adding the hydrotrope or surfactant and agitate until solution is clear.

| Molecule | CMC [1] | Surface Tension @CMC [1] | Final appearance ([2]; after adding hydrotrope or surfactant to cloudy nonionic blend) | hydrotrope requirement (actives) ([2]; amount needed to clear blend of 5% Bio-soft N25-9, 5% Bio-Soft N25-3, 1% trisodium citrate) |
| --- | --- | --- | --- | --- |
| Sodium Laureth Sulfate, 3EO [STEOL CS-330] | 75 mg/L | 30 mN/m |  |  |
| Sodium xylene sulfonate [SXS] |  |  | clear | 5.3 % actives |
| CCCCCCCCCCCCOS(=O)(=O)[O-].[Na+] [STEPANOL WA-EXTRA, Sodium Lauryl Sulfate] | 184.8 mg/L | 26.3 mN/m |  |  |
| Sodium Laureth Sulfate, 2EO [STEOL CS-230] | 171 mg/L | 25 mN/m |  |  |
